Source: PubChem BioAssay (NCI)
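Protocol summary: plate cells (96-well), add compound at 5 concentrations, incubate 48 h, interpolate endpoints linearly. At the GI50, growth is halved. The concentration for full growth arrest is given as TGI.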

What was measured:
Assay in all cases: inhibition of tumour cell growth, NCI panel, 48 h
UO-31 renal = system: UO-31 renal
SF-539 CNS = system: SF-539 CNS
RPMI-8226 leukemia = system: RPMI-8226 leukemia
NCI-H23 lung = system: NCI-H23 lung
HOP-92 NSCLC = system: HOP-92 NSCLC
A498 renal = system: A498 renal
SW-620 colon = system: SW-620 colon
HT29 colon = system: HT29 colon
SK-MEL-2 melanoma = system: SK-MEL-2 melanoma
A549 NSCLC = system: A549 NSCLC

For `C[N+](C)(C)CC1CCCCC1O` (configuration not stated), the TGI (UO-31 renal) was > 100 µM, the TGI (SF-539 CNS) was > 100 µM and the TGI (RPMI-8226 leukemia) was > 100 µM. For the same compound, the TGI (NCI-H23 lung) was > 100 µM, the TGI (HOP-92 NSCLC) was > 100 µM and the TGI (A498 renal) was > 100 µM. For the same compound, the TGI (SW-620 colon) was > 100 µM, the TGI (HT29 colon) was > 100 µM and the TGI (SK-MEL-2 melanoma) was > 100 µM.

In the case of `COc1ccc(CN2CCC/C=C/CC(Cl)(Cl)C2=O)cc1`, the TGI (UO-31 renal) is reported as 57.4 µM, the TGI (SF-539 CNS) is reported as > 100 µM and the TGI (RPMI-8226 leukemia) is reported as 69.4 µM. For the same compound, the TGI (A549 NSCLC) was > 100 µM, the TGI (NCI-H23 lung) was 99.5 µM and the TGI (HOP-92 NSCLC) was 62.5 µM. For the same compound, the TGI (A498 renal) was 73.7 µM, the TGI (SW-620 colon) was > 100 µM and the TGI (HT29 colon) was > 100 µM. It also gave a TGI (SK-MEL-2 melanoma) of 44.8 µM.

With `Cc1c2ccccc2cc2ccc3oc([N+](=O)[O-])cc3c12` the TGI (UO-31 renal) was > 100 µM, the TGI (SF-539 CNS) was > 100 µM and the TGI (RPMI-8226 leukemia) was > 100 µM. For the same compound, the TGI (A549 NSCLC) was > 100 µM, the TGI (HOP-92 NSCLC) was > 100 µM and the TGI (A498 renal) was > 100 µM. The TGI (SW-620 colon) was > 100 µM, the TGI (HT29 colon) was > 100 µM and the TGI (SK-MEL-2 melanoma) was > 100 µM.

In the case of `O=c1oc2ccccc2[n+]([O-])c1-c1ccccc1`, the TGI (UO-31 renal) is reported as > 100 µM, the TGI (SF-539 CNS) is reported as > 100 µM and the TGI (RPMI-8226 leukemia) is reported as > 100 µM. The TGI (A549 NSCLC) was > 100 µM, the TGI (NCI-H23 lung) was > 100 µM and the TGI (HOP-92 NSCLC) was > 100 µM. For the same compound, the TGI (A498 renal) was > 100 µM, the TGI (SW-620 colon) was > 100 µM and the TGI (HT29 colon) was > 100 µM. For the same compound, the TGI (SK-MEL-2 melanoma) was > 100 µM.

For `O=C(N/N=C/c1cccc(F)c1)c1ccncc1`, the TGI (RPMI-8226 leukemia) was > 100 µM, the TGI (A549 NSCLC) was > 100 µM and the TGI (NCI-H23 lung) was > 100 µM. For the same compound, the TGI (HOP-92 NSCLC) was > 100 µM, the TGI (A498 renal) was > 100 µM and the TGI (SW-620 colon) was > 100 µM. For the same compound, the TGI (HT29 colon) was > 100 µM and the TGI (SK-MEL-2 melanoma) was > 100 µM.

`Cc1ccc(-c2nc3nc(-c4ccc(F)cc4)nc(N4CCCNCC4)c3o2)cc1` gave a GI50 (UO-31 renal) of 1.44 µM, a TGI (UO-31 renal) of 2.79 µM and a GI50 (SF-539 CNS) of 1.66 µM. For the same compound, the TGI (SF-539 CNS) was 3.04 µM, the GI50 (RPMI-8226 leukemia) was 1.85 µM and the TGI (RPMI-8226 leukemia) was 4.66 µM. For the same compound, the GI50 (NCI-H23 lung) was 1.82 µM, the TGI (NCI-H23 lung) was 3.47 µM and the GI50 (HOP-92 NSCLC) was 1.32 µM. For the same compound, the TGI (HOP-92 NSCLC) was 2.88 µM, the GI50 (A498 renal) was 1.68 µM and the TGI (A498 renal) was 3.12 µM. The GI50 (SW-620 colon) was 0.742 µM, the TGI (SW-620 colon) was 2.17 µM and the GI50 (SK-MEL-2 melanoma) was 1.73 µM. For the same compound, the TGI (SK-MEL-2 melanoma) was 3.35 µM.

For `N#CNC(N)=Nc1ccc(Cl)cc1`, the TGI (UO-31 renal) was > 100 µM, the TGI (SF-539 CNS) was > 100 µM and the TGI (RPMI-8226 leukemia) was > 100 µM. For the same compound, the TGI (A549 NSCLC) was > 100 µM, the TGI (NCI-H23 lung) was > 100 µM and the TGI (HOP-92 NSCLC) was > 100 µM. The TGI (A498 renal) was > 100 µM, the TGI (SW-620 colon) was > 100 µM and the TGI (HT29 colon) was > 100 µM. The TGI (SK-MEL-2 melanoma) was > 100 µM.

With `Cc1ccc(NC(=O)c2cc(S(=O)(=O)N3C(=O)NC(=O)NS3(=O)=O)c(S)cc2Cl)cc1` the GI50 (UO-31 renal) was 27.8 µM, the TGI (UO-31 renal) was > 100 µM and the GI50 (SF-539 CNS) was 27.6 µM. It also gave a TGI (SF-539 CNS) of 68 µM, a GI50 (RPMI-8226 leukemia) of 22 µM and a TGI (RPMI-8226 leukemia) of 73.6 µM. The GI50 (A549 NSCLC) was 35.1 µM, the TGI (A549 NSCLC) was > 100 µM and the GI50 (NCI-H23 lung) was 32.3 µM. The TGI (NCI-H23 lung) was 99.6 µM, the GI50 (HOP-92 NSCLC) was 15.6 µM and the TGI (HOP-92 NSCLC) was 54.7 µM. It also gave a GI50 (A498 renal) of 26.2 µM, a TGI (A498 renal) of 68.5 µM and a GI50 (SW-620 colon) of 31.6 µM. For the same compound, the TGI (SW-620 colon) was > 100 µM, the GI50 (HT29 colon) was 42.8 µM and the TGI (HT29 colon) was > 100 µM. For the same compound, the GI50 (SK-MEL-2 melanoma) was 28.3 µM and the TGI (SK-MEL-2 melanoma) was 85.3 µM.

`CNC(=O)c1nn(C)c2c1C(C)(C)Cc1cnc(Nc3ccc(N4CCN(C)CC4)cc3)nc1-2` gave a GI50 (UO-31 renal) of 0.169 µM, a TGI (UO-31 renal) of 2.39 µM and a GI50 (SF-539 CNS) of 1.39 µM. The TGI (SF-539 CNS) was > 6.03 µM, the GI50 (RPMI-8226 leukemia) was 0.475 µM and the TGI (RPMI-8226 leukemia) was > 3.98 µM. The GI50 (A549 NSCLC) was 0.682 µM, the TGI (A549 NSCLC) was > 10 µM and the GI50 (NCI-H23 lung) was 0.966 µM. The TGI (NCI-H23 lung) was > 7.26 µM, the GI50 (HOP-92 NSCLC) was 0.174 µM and the TGI (HOP-92 NSCLC) was > 2.35 µM. It also gave a GI50 (A498 renal) of 0.139 µM, a TGI (A498 renal) of 0.861 µM and a GI50 (SW-620 colon) of 0.608 µM. The TGI (SW-620 colon) was > 10 µM, the GI50 (HT29 colon) was 0.94 µM and the TGI (HT29 colon) was > 10 µM. For the same compound, the GI50 (SK-MEL-2 melanoma) was 0.432 µM and the TGI (SK-MEL-2 melanoma) was > 8.25 µM.
